ChEMBL document CHEMBL5390201, “The Natural Alkaloid (-)-N-Hydroxyapiosporamide Suppresses Colorectal Tumor Progression as an NF-κB Pathway Inhibitor by Targeting the TAK1-TRAF6 Complex” (J Nat Prod, 2023)
Active and inactive are the calls of the source. The rule behind the calls is not given here.

What was measured:
Mus musculus [1] = experiment: (§1) Anti-inflammatory activity in AOM/DSS-induced BALB/c mouse model inflammatory bowel disease assessed as reduction in colon thickness at 5 to 10 mg/kg, ip pretreated with AOM for 7 days further replaced with DSS for 7 days and repeated for 2 times followed by every 2 days compound treatment for […] starting from day 50 and measured once a week; format: functional, organism-based; conditions: dose 5-10 mg/kg, time 21.0 day
HCT-116 [2] = experiment: Induction of cell cycle arrest in human HCT-116 cells assessed as decrease in CDK2 protein expression upto 10 uM incubated for 24 hrs by Western blot analysis; format: functional, cell-based
Cell membrane = experiment: Disruption of mitochondrial membrane potential in human HT-29 cells at upto 10 uM measured after 24 hrs by JC-1 staining based fluorescence microscopy; format: subcellular
HCT-116 [3] = experiment: Induction of apoptosis in human HCT-116 cells assessed as late apoptotic cells at 5 uM incubated for 24 hrs by Annexin V-FITC/PI staining based flow cytometric analysis (reference value: 2.9 %); format: functional
HT-29 [4] = experiment: Induction of apoptosis in human HT-29 cells assessed as viable cells at 0.5 uM incubated for 24 hrs by Annexin V-FITC/PI staining based flow cytometric analysis (reference value: 93 %); format: functional; conditions: read-out: Activity
HCT-116 [5] = experiment: Induction of cell cycle arrest in human HCT-116 cells assessed as accumulation of cells at G0/G1 phase at 10 uM by RNase/PI staining based flow cytometry analysis (reference value: 33.08 %); format: functional
HT-29 [6] = experiment: Induction of apoptosis in human HT-29 cells assessed as late apoptotic cells at 0.25 uM incubated for 24 hrs by Annexin V-FITC/PI staining based flow cytometric analysis (reference value: 1.56 %); format: functional
HT-29 [7] = experiment: Induction of apoptosis in human HT-29 cells assessed as necrotic cells at 0.5 uM incubated for 24 hrs by Annexin V-FITC/PI staining based flow cytometric analysis (reference value: 0.14 %); format: functional
[8] = Toxicity in athymic nude BALB/c mouse xenografted with human HT-29 cells assessed as pathological changes in kidney at 5 to 15 mg/kg, ip administered every other day and measured after 14 days by hematoxylin and eosin staining-based microscopic analysis; format: organism-based; conditions: in vivo, 336 h, dose 5-15 mg/kg, time 14 day
HCT-116 [9] = experiment: Induction of apoptosis in human HCT-116 cells assessed as viable cells at 5 uM preincubated with Z-VAD-FMK for 1 hr followed by compound addition and measured after 24 hrs by Annexin V-FITC/PI staining based flow cytometric analysis (reference value: 85.5 %); format: functional; conditions: read-out: Activity
HT-29 [10] = experiment: Induction of cell cycle arrest in human HT-29 cells assessed as decrease in P-cdc2 protein expression upto 10 uM incubated for 24 hrs by Western blot analysis; format: functional, cell-based
HT-29 [11] = experiment: Induction of apoptosis in human HT-29 cells assessed as necrotic cells at 5 uM incubated for 24 hrs by Annexin V-FITC/PI staining based flow cytometric analysis (reference value: 0.37 %); format: functional
HT-29 [12] = experiment: Induction of cell cycle arrest in human HT-29 cells assessed as accumulation of cells at S phase at 5 uM by RNase/PI staining based flow cytometry analysis (reference value: 39.34%); format: functional
HCT-116 [13] = experiment: Induction of apoptosis in human HCT-116 cells assessed as early apoptotic cells at 5 uM preincubated with Z-VAD-FMK for 1 hr followed by compound addition and measured after 24 hrs by Annexin V-FITC/PI staining based flow cytometric analysis (reference value: 4.75 %); format: functional
HT-29 [14] = experiment: Antitumor activity against human HT-29 cells xenografted in athymic nude BALB/c mouse assessed as induction of apoptosis by measuring increase in cleaved caspase 3 expression in tumor at 15 mg/kg, ip administered every other day and measured after 14 days by immunohistochemistry analysis; format: functional, organism-based; conditions: time 14.0 day
[15] = target: T1, Nuclear factor NF-kappa-B complex (Homo sapiens) (UniProt Q00653+P19838+Q04206); experiment: Inhibition of NFkappaB activation in HEK293T cells transfected with HA-tagged TAB2 and kappaB luciferase/pTK-renilla reporters at 2 uM incubated for 6 hrs by Dual Luciferase Reporter Assay; format: cell-based; conditions: HEK-293T
T1 sequence (P19838 whole entry, looked up): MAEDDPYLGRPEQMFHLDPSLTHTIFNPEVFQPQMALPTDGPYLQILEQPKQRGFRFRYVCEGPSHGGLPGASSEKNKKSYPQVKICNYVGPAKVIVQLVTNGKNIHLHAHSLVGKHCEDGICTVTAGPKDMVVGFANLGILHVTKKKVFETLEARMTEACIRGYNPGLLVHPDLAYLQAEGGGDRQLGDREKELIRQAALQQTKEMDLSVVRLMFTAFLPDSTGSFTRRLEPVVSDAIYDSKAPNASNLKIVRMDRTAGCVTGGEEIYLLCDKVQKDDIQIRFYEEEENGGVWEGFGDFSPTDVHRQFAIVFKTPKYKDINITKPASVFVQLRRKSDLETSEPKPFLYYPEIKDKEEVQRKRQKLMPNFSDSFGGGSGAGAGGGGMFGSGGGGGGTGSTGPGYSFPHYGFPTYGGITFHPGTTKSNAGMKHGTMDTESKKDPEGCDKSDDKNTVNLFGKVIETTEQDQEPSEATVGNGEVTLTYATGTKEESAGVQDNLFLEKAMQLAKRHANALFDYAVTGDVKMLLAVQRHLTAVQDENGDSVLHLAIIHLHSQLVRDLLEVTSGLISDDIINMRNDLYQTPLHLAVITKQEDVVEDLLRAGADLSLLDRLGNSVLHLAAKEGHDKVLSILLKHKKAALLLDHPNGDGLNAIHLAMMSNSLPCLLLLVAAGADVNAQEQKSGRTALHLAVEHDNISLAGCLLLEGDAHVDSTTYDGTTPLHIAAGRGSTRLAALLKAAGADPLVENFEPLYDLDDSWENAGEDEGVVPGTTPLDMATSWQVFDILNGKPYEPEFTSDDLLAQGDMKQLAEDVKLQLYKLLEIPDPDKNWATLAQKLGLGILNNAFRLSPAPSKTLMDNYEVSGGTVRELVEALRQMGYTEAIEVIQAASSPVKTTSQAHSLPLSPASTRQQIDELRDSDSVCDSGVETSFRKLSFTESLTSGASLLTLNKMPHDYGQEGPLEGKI
T1 sequence (Q00653 whole entry, looked up): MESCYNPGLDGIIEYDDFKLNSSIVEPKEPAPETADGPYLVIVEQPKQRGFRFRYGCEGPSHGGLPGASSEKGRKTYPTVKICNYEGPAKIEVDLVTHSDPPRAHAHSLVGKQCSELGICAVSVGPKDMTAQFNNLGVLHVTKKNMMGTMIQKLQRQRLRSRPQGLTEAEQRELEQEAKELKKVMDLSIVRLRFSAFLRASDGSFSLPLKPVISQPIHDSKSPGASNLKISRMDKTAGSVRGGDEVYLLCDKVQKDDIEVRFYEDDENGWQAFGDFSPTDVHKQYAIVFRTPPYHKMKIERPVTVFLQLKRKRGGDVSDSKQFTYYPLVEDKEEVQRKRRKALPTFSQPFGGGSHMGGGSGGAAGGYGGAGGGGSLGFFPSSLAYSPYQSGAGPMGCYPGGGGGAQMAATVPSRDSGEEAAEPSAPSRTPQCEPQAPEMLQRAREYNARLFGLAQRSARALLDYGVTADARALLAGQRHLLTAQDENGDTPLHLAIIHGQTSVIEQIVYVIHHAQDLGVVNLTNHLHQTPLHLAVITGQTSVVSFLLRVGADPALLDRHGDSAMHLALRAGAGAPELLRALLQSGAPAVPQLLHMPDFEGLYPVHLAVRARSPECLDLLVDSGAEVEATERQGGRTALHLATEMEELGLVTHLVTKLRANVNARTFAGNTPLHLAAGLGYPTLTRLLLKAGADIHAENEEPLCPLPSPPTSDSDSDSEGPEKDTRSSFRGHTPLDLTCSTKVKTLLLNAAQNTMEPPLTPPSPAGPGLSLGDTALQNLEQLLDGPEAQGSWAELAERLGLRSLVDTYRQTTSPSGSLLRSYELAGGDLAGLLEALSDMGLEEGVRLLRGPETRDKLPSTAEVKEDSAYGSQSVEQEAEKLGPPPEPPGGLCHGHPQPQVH
T1 sequence (Q04206 whole entry, looked up): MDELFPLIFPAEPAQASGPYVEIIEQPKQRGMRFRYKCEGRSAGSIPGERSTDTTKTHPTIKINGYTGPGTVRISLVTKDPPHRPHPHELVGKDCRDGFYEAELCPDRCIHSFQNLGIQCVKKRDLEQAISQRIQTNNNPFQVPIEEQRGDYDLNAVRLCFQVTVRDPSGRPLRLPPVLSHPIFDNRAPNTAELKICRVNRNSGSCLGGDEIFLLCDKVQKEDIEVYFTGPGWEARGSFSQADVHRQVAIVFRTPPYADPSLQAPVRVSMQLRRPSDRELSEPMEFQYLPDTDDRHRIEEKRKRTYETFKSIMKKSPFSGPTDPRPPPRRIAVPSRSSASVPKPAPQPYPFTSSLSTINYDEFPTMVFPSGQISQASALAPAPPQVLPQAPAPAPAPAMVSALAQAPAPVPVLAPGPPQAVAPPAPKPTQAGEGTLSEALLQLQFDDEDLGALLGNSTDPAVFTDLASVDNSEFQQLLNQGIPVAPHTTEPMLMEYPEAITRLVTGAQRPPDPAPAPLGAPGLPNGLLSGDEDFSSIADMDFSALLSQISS

HT-29 [16] = experiment: Induction of autophagy in human HT-29 cells assessed as increase in autophagic vesicles at 1 to 10 uM incubated for 24 hrs MDC staining-based fluorescence microscopy; format: functional, cell-based; conditions: dose 1-10 µM
[17] = Toxicity in athymic nude BALB/c mouse xenografted with human HCT-116 cells assessed as pathological changes in lungs at 5 to 15 mg/kg, ip administered every other day and measured after 14 days by hematoxylin and eosin staining-based microscopic analysis; format: organism-based; conditions: in vivo, 336 h, dose 5-15 mg/kg, time 14 day
HCT-116 [18] = experiment: Induction of cell cycle arrest in human HCT-116 cells assessed as accumulation of cells at G2/M phase at 5 uM by RNase/PI staining based flow cytometry analysis (reference value: 23.15 %); format: functional
HT-29 [19] = experiment: Induction of cell cycle arrest in human HT-29 cells assessed as decrease in CDK4 protein expression upto 10 uM incubated for 24 hrs by Western blot analysis; format: functional, cell-based
Mus musculus [20] = experiment: as §1, with “tumor length” for “colon thickness”; format: functional, organism-based; conditions: dose 5-10 mg/kg, time 21.0 day
[21] = target: T1, Nuclear factor NF-kappa-B complex (Homo sapiens); experiment: Inhibition of NFkappaB activation in HEK293T cells transfected with Flag-tagged MyD88 and kappaB luciferase/pTK-renilla reporters at 2 uM incubated for 6 hrs by Dual Luciferase Reporter Assay; format: cell-based; conditions: HEK-293T
Mus musculus [22] = experiment: In vivo inhibition of NFkappaB activation in LPS-induced BALB/c mouse model of endotoxin shock assessed as reduction in TNF-alpha level in serum at 5 mg/kg, ip pretreated for 4 hrs followed by LPS stimulation for 1 hr by ELISA; format: functional, organism-based; conditions: time 5.0 hrs
HCT-116 [23] = experiment: Induction of autophagic cell death in human HCT-116 cells at 1 to 10 uM pretreated with 3-methyladenine for 1 hr followed by compound addition and measured after 24 hrs by SRB assay; format: functional, cell-based; conditions: dose 1-10 µM
HT-29 [24] = experiment: Cytotoxicity against human HT-29 cells assessed as inhibition of cell growth by SRB assay; format: functional, cell-based; conditions: time 24-48 hrs, TDE = time-dependent effect
Mus musculus [25] = experiment: as §1, with “death rate” for “colon thickness”; format: functional, organism-based; conditions: dose 5-10 mg/kg, time 21.0 day
HCT-116 [26] = experiment: Induction of apoptosis in human HCT-116 cells assessed as increase in cleavage of PARP measured for 24 hrs by Western blot analysis; format: functional, cell-based; conditions: dose 0-10 µM
HCT-116 [27] = experiment: Cytotoxicity against human HCT-116 cells assessed as inhibition of cell growth by SRB assay; format: functional, cell-based; conditions: time 24-48 hrs, TDE = time-dependent effect
[28] = Half life in Sprague-Dawley rat at 10 mg/kg, ip measured for 24 hrs by HPLC-MS/MS analysis; format: ADME, organism-based; conditions: in vivo
HCT-116 [29] = experiment: Induction of cell cycle arrest in human HCT-116 cells assessed as accumulation of cells at G2/M phase at 10 uM by RNase/PI staining based flow cytometry analysis (reference value: 23.15 %); format: functional
Mus musculus [30] = experiment: as §1, with “transformation into adenocarcinoma” for “colon thickness”, “at” for “at 5 to”, “50 by H” for “50”, “E staining based analysis” for “measured once a week”; format: functional, organism-based; conditions: time 21.0 day
[31] = Plasma clearance in Sprague-Dawley rat at 10 mg/kg, iv measured for 24 hrs by HPLC-MS/MS analysis; format: ADME, organism-based

For `C[C@@H]1CC[C@H]2[C@H](C(=O)c3c(O)c([C@@]4(O)CC[C@@H](O)[C@H]5O[C@H]54)cn(O)c3=O)[C@H](C)C=C[C@@H]2C1`, the Activity (Mus musculus [1]) was “Active”, the Activity (HCT-116 [2]) was “Active” and the Activity (Cell membrane) was “Active”. The Activity (HCT-116 [3]) was 64.4%, the viability at 0.5 µM (HT-29 [4]) was 55.5% and the Activity (HCT-116 [5]) was 46.75%. The Activity (HT-29 [6]) was 1.4%, the Activity (HT-29 [7]) was 0.2% and the Activity [8] was “Non-Toxic”. The viability at 5 µM (HCT-116 [9]) was 29.5%, the Activity (HT-29 [10]) was “Active” and the Activity (HT-29 [11]) was 0.29%. The Activity (HT-29 [12]) was 32.46%, the Activity (HCT-116 [13]) was 16.8% and the Activity (HT-29 [14]) was “Active”. The inhibition [15] was “Active”, the Activity (HT-29 [16]) was “Active” and the Activity [17] was “Non-Toxic”. For the same molecule, the Activity (HCT-116 [18]) was 15.66%, the Activity (HT-29 [19]) was “Active” and the Activity (Mus musculus [20]) was “Active”. For the same molecule, the inhibition [21] was “Active”, the inhibition (Mus musculus [22]) was “Active” and the Activity (HCT-116 [23]) was “inactive”. The Activity (HT-29 [24]) was “Tde”, the Activity (Mus musculus [25]) was “Active” and the Activity (HCT-116 [26]) was “Dose-Dependent Effect”. The Activity (HCT-116 [27]) was “Tde”, the half-life [28] was 224 min and the Activity (HCT-116 [29]) was 14.17%. For the same molecule, the Activity (Mus musculus [30]) was “Active” and the clearance [31] was 4 mL/min/kg.
